Literature values in US7834031B2, “Radiolabeled glycine transporter inhibitors” (Merck Sharp & Dohme Corp., priority 2005, dated 2010).

Tests used:
[1] = tested on: symptoms of schizophrenia; settings: high doses, oral, add-on to standard neuroleptic therapy
[2] = tested on: symptoms of schizophrenia; settings: schizophrenia patients poorly responsive to antipsychotic drugs
pre-pulse inhibition = settings: mice; measure of sensory gating
NMDA receptor activity = settings: rat

## NCC(=O)O [glycine]
[1]
  symptoms of schizophrenia patients: improvement of the symptoms

## CNCC(=O)O [sarcosine]
[2]
  effect on positive, negative and cognitive symptoms: beneficial effect

## CN(CCC(Oc1ccc(-c2ccccc2)cc1)c1ccc(F)cc1)CC(=O)O (stereo not shown) [NFPS, (N-[3-(4′-fluorophenyl)-3-(4′-phenylphenoxy)propyl])sarcosine]
pre-pulse inhibition
  pre-pulse inhibition: enhance pre-pulse inhibition
NMDA receptor activity
  NMDA receptor activity and NMDA receptor-dependent long-term potentiation: potentiates NMDA receptor activity and NMDA receptor-dependent long-term potentiation
